# Experimental data as given in ChEMBL document CHEMBL4261482, “Development of small molecular compounds targeting cancer stem cells” (Medchemcomm, 2017).
# How the values were obtained:
# Lu-99 cell line [1] = assay: Cytotoxicity against human LU99 cells assessed as decrease in cell viability after 72 hrs by CCK8 assay; assay type: functional, cell-based; details: Lu-99, 72 h
# Daudi = assay: Cytotoxicity against human Daudi cells assessed as decrease in cell viability after 72 hrs by CCK8 assay; assay type: functional, cell-based
# MKN-1 = assay: Cytotoxicity against human MKN1 cells assessed as decrease in cell viability after 72 hrs by CCK8 assay; assay type: functional, cell-based; details: MKN-1, 72 h
# HCT-116 = assay: Cytotoxicity against human HCT116 cells assessed as decrease in cell viability after 72 hrs by CCK8 assay; assay type: functional, cell-based; details: HCT-116, 72 h
# MIA PaCa-2 = assay: Cytotoxicity against human MIAPaCa2 cells assessed as decrease in cell viability after 72 hrs by CCK8 assay; assay type: functional, cell-based; details: MIA PaCa-2, 72 h
# UMUC3 = assay: Cytotoxicity against human UM-UC-3 cells assessed as decrease in cell viability after 72 hrs by CCK8 assay; assay type: functional, cell-based; details: UMUC3, 72 h
# MKN-45 = assay: Cytotoxicity against human MKN45 cells assessed as decrease in cell viability after 72 hrs by CCK8 assay; assay type: functional, cell-based; details: MKN-45, 72 h
# DU-4475 [2] = assay: Cytotoxicity against human DU4475 cells assessed as decrease in cell viability after 72 hrs by CCK8 assay; assay type: functional, cell-based; details: DU-4475, 72 h
# A549 [3] = assay: Cytotoxicity against human A549 cells assessed as decrease in cell viability after 72 hrs by CCK8 assay; assay type: functional, cell-based; details: A549, 72 h
# CWR22R [4] = assay: Cytotoxicity against human 22Rv1 cells assessed as decrease in cell viability after 72 hrs by CCK8 assay; assay type: functional, cell-based; details: 22Rv1, 72 h
# T47D [5] = assay: Cytotoxicity against human T47D cells assessed as decrease in cell viability after 72 hrs by CCK8 assay; assay type: functional, cell-based
# HepG2 = assay: Cytotoxicity against human HepG2 cells assessed as decrease in cell viability after 72 hrs by CCK8 assay; assay type: functional, cell-based; details: HepG2, 72 h
# MDA-MB-231 = assay: Cytotoxicity against human MDA-MB-231 cells assessed as decrease in cell viability after 72 hrs by CCK8 assay; assay type: functional, cell-based; details: MDA-MB-231, 72 h
# Lu-99 cell line [6] = assay: Antitumor activity against human LU99 cells xenografted in BALB/cSLC-nu/nu mouse assessed as tumor growth inhibition at 40 mg/kg, iv administered in liposomal formulation on day 1, 4, 8, 11, 15, 18 measured on day 22 relative to control; assay type: functional; details: Lu-99, iv, read-out: TGI
# Lu-99 cell line [7] = assay: Antitumor activity against human LU99 cells xenografted in BALB/cSLC-nu/nu mouse assessed as tumor growth inhibition at 100 mg/kg, po qd administered for 14 days measured on day 15 relative to control; assay type: functional; details: Lu-99, po, read-out: TGI
# DU-4475 [8] = assay: Antiproliferative activity against human DU4475 cells; assay type: functional, cell-based
# T47D [9] = assay: Antiproliferative activity against human T47D cells; assay type: functional, cell-based
# CWR22R [10] = assay: Antiproliferative activity against human 22Rv1 cells; assay type: functional, cell-based
# A549 [11] = assay: Antiproliferative activity against human A549 cells; assay type: functional, cell-based
# A549 [12] = assay: Antitumor activity against human A549 cells xenografted in BALB/cSLC-nu/nu mouse assessed as tumor growth inhibition at 10 mg/kg, iv qd administered for 14 days measured on day 15 relative to control; assay type: functional; details: read-out: TGI
# A549 [13] = assay: Antitumor activity against human A549 cells xenografted in BALB/cSLC-nu/nu mouse assessed as tumor growth inhibition at 10 mg/kg administered through oral gavage as qd for 14 days measured on day 15 relative to control; assay type: functional; details: read-out: TGI
# MV4-11 = assay: Cytotoxicity against human MV4-11 cells assessed as decrease in cell viability after 48 hrs by MTT assay; assay type: functional, cell-based; details: MV4-11, 48 h
# THP-1 = assay: Cytotoxicity against human THP1 cells assessed as decrease in cell viability after 48 hrs by MTT assay; assay type: functional, cell-based; details: THP-1, 48 h
# KG-1 = assay: Cytotoxicity against human KG1 cells assessed as decrease in cell viability after 48 hrs by MTT assay; assay type: functional, cell-based; details: KG-1, 48 h
# [14] = Cytotoxicity against human KOCL48 cells assessed as decrease in cell viability after 48 hrs by MTT assay; assay type: functional, cell-based
# MOLM-13 = assay: Cytotoxicity against human MOLM13 cells assessed as decrease in cell viability after 48 hrs by MTT assay; assay type: functional, cell-based; details: MOLM-13, 48 h
# KG-1a = assay: Cytotoxicity against human KG1a cells assessed as decrease in cell viability after 48 hrs by MTT assay; assay type: functional, cell-based
# K562 = assay: Cytotoxicity against human K562 cells assessed as decrease in cell viability after 48 hrs by MTT assay; assay type: functional, cell-based; details: K562, 48 h
# ML-2 = assay: Cytotoxicity against human ML2 cells assessed as decrease in cell viability after 48 hrs by MTT assay; assay type: functional, cell-based; details: ML-2, 48 h
# U-937 = assay: Cytotoxicity against human U937 cells assessed as decrease in cell viability after 48 hrs by MTT assay; assay type: functional, cell-based; details: U-937, 48 h
# BGC-823 = assay: Antiproliferative activity against human BGC823 cells after 24 to 96 hrs by CCK8 assay; assay type: functional, cell-based
# SGC-7901 = assay: Antiproliferative activity against human SGC7901 cells after 24 to 96 hrs by CCK8 assay; assay type: functional, cell-based
# [15] = Antitumor activity against human gastric cancer cells xenografted in NOD/SCID mouse assessed as tumor growth inhibition at 15 mg/kg, iv administered once in every 2 days for 2 weeks measured on day 15 relative to control; assay type: functional; details: read-out: TGI
# NCI-H69 = assay: Cytotoxicity against human H69 cells assessed as decrease in cell viability after 72 hrs by MTT assay; assay type: functional, cell-based; details: NCI-H69, 72 h
# NCI-H82 = assay: Cytotoxicity against human H82 cells assessed as decrease in cell viability after 72 hrs by MTT assay; assay type: functional, cell-based; details: NCI-H82, 72 h
# NCI-H524 = assay: Cytotoxicity against human NCI-H524 cells assessed as decrease in cell viability after 72 hrs by MTT assay; assay type: functional, cell-based; details: NCI-H524, 72 h
# DMS-114 = assay: Cytotoxicity against human DMS114 cells assessed as decrease in cell viability after 72 hrs by MTT assay; assay type: functional, cell-based; details: DMS-114, 72 h
# SBC-5 = assay: Cytotoxicity against human SBC5 cells assessed as decrease in cell viability after 72 hrs by MTT assay; assay type: functional, cell-based; details: SBC-5, 72 h
# SBC-3 = assay: Cytotoxicity against human SBC3 cells assessed as decrease in cell viability after 72 hrs by MTT assay; assay type: functional, cell-based; details: SBC-3, 72 h
# [16] = Cytotoxicity against human H69AR cells assessed as decrease in cell viability after 72 hrs by MTT assay; assay type: functional, cell-based
# NCI-H2171 = assay: Cytotoxicity against human NCI-H2171 cells assessed as decrease in cell viability after 72 hrs by MTT assay; assay type: functional, cell-based; details: NCI-H2171, 72 h
# NCI-H446 = assay: Cytotoxicity against human NCI-H446 cells assessed as decrease in cell viability after 72 hrs by MTT assay; assay type: functional, cell-based; details: NCI-H446, 72 h
# NCI-H146 = assay: Cytotoxicity against human NCI-H146 cells assessed as decrease in cell viability after 72 hrs by MTT assay; assay type: functional, cell-based; details: NCI-H146, 72 h
# DMS-273 = assay: Cytotoxicity against human DMS273 cells assessed as decrease in cell viability after 72 hrs by MTT assay; assay type: functional, cell-based; details: DMS-273, 72 h
# CAKI-1 = assay: Cytotoxicity against human Caki1 cells assessed as decrease in cell viability after 72 hrs by MTT assay; assay type: functional, cell-based; details: CAKI-1, 72 h
# 769-P = assay: Cytotoxicity against human 769-P cells assessed as decrease in cell viability after 72 hrs by MTT assay; assay type: functional, cell-based
# 786-0 = assay: Cytotoxicity against human 786-O cells assessed as decrease in cell viability after 72 hrs by MTT assay; assay type: functional, cell-based; details: 786-0, 72 h
# [17] = Cytotoxicity against human VMRC-RCW cells assessed as decrease in cell viability after 72 hrs by MTT assay; assay type: functional, cell-based
# CAKI-2 = assay: Cytotoxicity against human Caki2 cells assessed as decrease in cell viability after 72 hrs by MTT assay; assay type: functional, cell-based; details: CAKI-2, 72 h
compound,measurement,setting,value
Cc1cc(O)c(-c2ccc([C@@H](C)CN(C)C)cc2)c2c1[nH]c(=O)c1sccc12,IC50,Lu-99 cell line [1],7.6 nM
same,IC50,Daudi,25 nM
same,IC50,MKN-1,38 nM
same,IC50,HCT-116,33 nM
same,IC50,MIA PaCa-2,30 nM
same,IC50,UMUC3,32 nM
same,IC50,MKN-45,39 nM
same,IC50,DU-4475 [2],53 nM
same,IC50,A549 [3],31 nM
same,IC50,CWR22R [4],50 nM
same,IC50,T47D [5],72 nM
same,IC50,HepG2,19 nM
same,IC50,MDA-MB-231,73 nM
same,inhibition in vivo at 40 mg/kg,Lu-99 cell line [6],110%
same,inhibition in vivo at 100 mg/kg,Lu-99 cell line [7],113%
CC(=O)c1cnc2ccc(-c3cc(Cl)c(O)c(Cl)c3)nc2c1N[C@H]1CC[C@H](CN(C)C)CC1,IC50,DU-4475 [8],2.3 nM
same,IC50,T47D [9],4.3 nM
same,IC50,CWR22R [10],6 nM
same,IC50,A549 [11],6.7 nM
same,inhibition in vivo at 10 mg/kg,A549 [12],108%
same,inhibition in vivo at 10 mg/kg,A549 [13],124%
same,IC50,MV4-11,7.9 nM
same,IC50,THP-1,15.6 nM
same,IC50,KG-1,16.9 nM
same,IC50,[14],16.9 nM
same,IC50,MOLM-13,17.5 nM
same,IC50,KG-1a,26.4 nM
same,IC50,K562,33 nM
same,IC50,ML-2,33.8 nM
same,IC50,U-937,69.8 nM
same,IC50,BGC-823,25 nM
same,IC50,SGC-7901,25 nM
same,inhibition in vivo at 15 mg/kg,[15],106 to 112%
same,IC50,NCI-H69,0.8 nM
same,IC50,NCI-H82,1.7 nM
same,IC50,NCI-H524,1.9 nM
same,IC50,DMS-114,2.1 nM
same,IC50,SBC-5,2.8 nM
same,IC50,SBC-3,4.3 nM
same,IC50,[16],4.4 nM
same,IC50,NCI-H2171,4.7 nM
same,IC50,NCI-H446,6.2 nM
same,IC50,NCI-H146,7.9 nM
same,IC50,DMS-273,8.4 nM
same,IC50,CAKI-1,12.4 nM
same,IC50,769-P,20.1 nM
same,IC50,786-0,23.9 nM
same,IC50,[17],25.5 nM
same,IC50,CAKI-2,38.7 nM
